# Values quoted from earlier work, collected in patent US20070123548A1, “Pth agonists” (priority 2004, published 2007).
# Settings: daily subcutaneous injection for up to 2 years
compound,measurement,value
CC[C@H](C)[C@H](NC(=O)[C@H](CCC(=O)O)NC(=O)[C@H](CO)NC(=O)[C@@H](NC(=O)[C@@H](N)CO)C(C)C)C(=O)N[C@@H](CCC(N)=O)C(=O)N[C@@H](CC(C)C)C(=O)N[C@@H](CCSC)C(=O)N[C@@H](Cc1cnc[nH]1)C(=O)N[C@@H](CC(N)=O)C(=O)N[C@@H](CC(C)C)C(=O)NCC(=O)N[C@@H](CCCCN)C(=O)N[C@@H](Cc1cnc[nH]1)C(=O)N[C@@H](CC(C)C)C(=O)N[C@@H](CC(N)=O)C(=O)N[C@@H](CO)C(=O)N[C@@H](CCSC)C(=O)N[C@@H](CCC(=O)O)C(=O)N[C@@H](CCCN=C(N)N)C(=O)N[C@H](C(=O)N[C@@H](CCC(=O)O)C(=O)N[C@@H](Cc1c[nH]c2ccccc12)C(=O)N[C@@H](CC(C)C)C(=O)N[C@@H](CCCN=C(N)N)C(=O)N[C@@H](CCCCN)C(=O)N[C@@H](CCCCN)C(=O)N[C@@H](CC(C)C)C(=O)N[C@@H](CCC(N)=O)C(=O)N[C@@H](CC(=O)O)C(=O)N[C@H](C(=O)N[C@@H](Cc1cnc[nH]1)C(=O)N[C@@H](CC(N)=O)C(=O)N[C@@H](Cc1ccccc1)C(=O)O)C(C)C)C(C)C [PTH(1-34)],Reduction of fracture incidence at non-vertebral sites,40%
same,Reduction of fracture incidence at the spine,65%
